Patent US20250044246A1, “NUCLEAR MAGNETIC RESONANCE METHODS OF DETERMINING HOMEOSTATIC PERTURBATIONS” (The United States of America, as represented by the …, priority 2021, published 2025)
Values joined by “and” are separate entries in the source; they are usually repeats but may differ in a detail not shown here. Identical values can stand only once. “Also recorded” adds a separate entry of the source.

Assays:
[1] = system: viable "live" ex vivo neonatal mouse spinal cords; assay: Real-time SG diffusion and SG-DEXSY measurements on viable spinal cords (Example 3); format: cell-based
Method: MR measurements were performed on viable “live” ex vivo neonatal mouse spinal cords at 13.79 MHz with a low-field single-sided magnet (PM-10 NMR MOUSE, Magritek) (Eidmann, et al., Journal of Magnetic Resonance, Series A, 122(1): 104-109 (1996)) and custom-made RF probe and solenoid coil (see FIG. 29). Diffusion was encoded on sub-micron length scales and sub-millisecond timescales with spin echoes in the presence of a g=15.3 T/m static gradient (SG) (Williamson, et al., Proceedings of the 28th annual International Society of Magnetic Resonance in Medicine (ISMRM) (2020)). SG diffusion measurements (Williamson, et al., Elife, 8: p. e51101 (2019)) and SG diffusion exchange spectroscopy (DEXY)-based exchange rate and spin-lattice relaxation rate measurements (as in Williamson, et al., Journal of Magnetic Resonance, 317: 106782 (2020)), with b1+b2=4.5 ms/μm^2) were repeatedly acquired (11 minutes per set) to observe real-time changes. During measurements, samples were maintained in a constant circulation of artificial cerebrospinal fluid (ACF) and gas and at 25° C.

[2] = system: live ex vivo neonatal mouse spinal cords; assay: Real-time DEXSY NMR water exchange rate and R1 DW on live spinal cords (Example 1); format: cell-based; conditions: 100 μM ouabain
Method: (§1) All experiments were performed on Swiss Webster wild type (Taconic Biosciences, Rensselaer, NY, USA) mice between postnatal day 1 to 4. The mouse spinal cords were isolated and placed in a dissecting chamber perfused with cold low-calcium high magnesium artificial cerebrospinal fluid (aCSF, concentrations in mM: 128.35 NaCl, 4 KCl, 0.5 CaCl2·2H2O, 6 MgSO4·7H2O, 0.58 NaH2PO4·H2O, 21 NaHCO3, 30 D-glucose) bubbled with 95% O2 and 5% CO2). Live spinal cords were transported in low-calcium, high-magnesium aCSF to the NMR experimental apparatus. Fixed spinal cords were kept overnight in 4% paraformaldehyde at 4° C. and then stored in phosphate buffered saline (PBS) at 4° C., and washed with aCSF three times over the course of two days to remove any residual paraformaldehyde prior to experiments. Experiments on fixed and live spinal cords were performed using normal aCSF (same concentrations as the low-calcium high-magnesium solution except for 1.5 mM CaCl2·2H2O and 1 mM MgSO4·7H2O).
A PM 10 NMR MOUSE single-sided permanent magnet (Eidmann, et al., Journal of Magnetic Resonance, 122: 104-109 (1996)) (Magritek, Aachen Germany) and a Kea 2 spectrometer (Magritek, Wellington, New Zealand) were used to perform NMR experiments at B0=0.3239 T (proton ω0=13.79 MHz) and […]. A test chamber and RF probe were fabricated to maximize SNR and maintain live spinal cord viability.
Sample temperature was controlled by heat exchange with one of two circulating water baths (Accel 250 LC, Thermo Scientific, USA, and WCR-P6 Precision Regulated Bath Circulator, Daihan Scientific, Lennox Laboratory supplies, Ireland). […] Sample temperature was monitored by a fiber optic sensor (PicoM, Opsens Solutions Inc., Quebec, Canada). […]
Experimental protocols involved looping through sets of diffusion experiments and rapid DEXSY experiments to acquire repetitions of each. Noise and RF probe tuning were monitored at the beginning of each loop. […]
(§2) to estimate the restriction radius r and the restricted fraction f. Each estimate incorporated k measured from the rapid exchange experiment during the same set. […]

[3] = system: live ex vivo neonatal mouse spinal cords; assay: Static-gradient spin echo diffusion NMR (ADCy, restricted fraction f) on live spinal cords (Example 1); format: cell-based
Method: as §1
The same experimental conditions were used for live and fixed spinal cords. […]
Diffusion experiments were performed using a standard sequence involving a spin echo (SE) for diffusion encoding followed by a CPMG signal acquisition (Rata, et al., Journal of Magnetic Resonance, 180(2): 229-235 (2006). τ (defined as half the SE echo time) was varied linearly from 0.05 to 3.3 ms over 22 steps with 4 scans per τ. This corresponds to b-values ranging from 0.001 to 400 ms/μm^2 where b=2/3γ^2g^2τ^3 (Carr, et al., Physical Review, 94(3): 630 (954), Hahn, Physical Review, 80(4): 580 (1950)). Points two through four (τ=0.2048 to 0.5143 ms, b=0.096 to 1.5 ms/μm^2) of diffusion data were fit with I(b)=I0 exp(−b ADC) to estimate the Apparent Diffusion Coefficient and I0. For measurements on spinal cords, the term ADCy is used, acknowledging that diffusion may be anisotropic but was measured only in the y direction, perpendicular to the cord. […]
as §2

[4] = system: ex vivo neonatal mouse spinal cords; assay: Multiexponential analysis of DEXSY exchange time distribution P(τk) (Example 5); format: cell-based; conditions: 100 μM ouabain, 25° C., live tissue
Method: The probability distribution functions of the exchange time were measured, P(τk)=P(1/k) by applying multi exponential analysis using numerical inverse Laplace transforms (ILTs) to data in which the effect of exchange has been isolated. Using a low-field, static gradient system, P(τk) data were acquired from ex vivo neonatal mouse spinal cords in three conditions: fixed, live, and live whilst treated with ouabain, a sodium-potassium pump inhibitor.
The static gradient DEXSY (SG-DEXSY) pulse sequence was implemented on a PM-10 NMR MOUSE single-sided magnet at ω0=13.79 MHz, B0=0.3239 T, g=15.3 T/m with a home-built solenoid RF coil and test chamber. 90°/180° RF pulse lengths=2/2 μs, pulse powers=−22/−16 dB, TR=2 s, 8000 echo CPMG train with TE=25 μs, 8 points per echo, and 0.5 μs dwell time.
Live (i.e., viable) and fixed ex vivo neonatal (postnatal day 1-4) mouse spinal cords were studied. Spinal cords were bathed in artificial cerebrospinal fluid at 95% O2/5% CO2 and 25° C. For the ouabain treatment condition, ouabain was added at a saturating concentration of 100 μM.
Data were acquired at bs=4.5 ms/μm^2 over 69 values of tm=0.2-1000 ms. A biexponential fit to the log-ratio of signals was first performed to yield robust estimates of the intercept C0 and limit f∞/C1 (FIGS. 35A-35D). […]

Na+/K+-ATPase = conditions: cited from earlier work
organotypic CNS = conditions: after blocking Na+/K+ pump with ouabain; cited from earlier work
live spinal cords = assay: Osmolarity perturbation with sucrose, diffusion and DEXSY NMR on live spinal cords; format: cell-based, mouse; conditions: +300 mM sucrose, live samples
Method: as §1, with “MgSO4·7H2O). […]” for “MgSO4·7H2O).”
as §2

fixed spinal cords = assay: Osmolarity perturbation with sucrose, diffusion and DEXSY NMR on fixed spinal cords; design: species or system mouse
Method: as §1
Diffusion experiments were performed using a standard sequence involving a spin echo (SE) for diffusion encoding followed by a CPMG signal acquisition (Rata, et al., Journal of Magnetic Resonance, 180(2): 229-235 (2006). τ (defined as half the SE echo time) was varied linearly from 0.05 to 3.3 ms over 22 steps with 4 scans per τ. This corresponds to b-values ranging from 0.001 to 400 ms/μm^2 where b=2/3γ^2g^2τ^3 (Carr, et al., Physical Review, 94(3): 630 (954), Hahn, Physical Review, 80(4): 580 (1950)). Points two through four (τ=0.2048 to 0.5143 ms, b=0.096 to 1.5 ms/μm^2) of diffusion data were fit with I(b)=I0 exp(−b ADC) to estimate the Apparent Diffusion Coefficient and I0. For measurements on spinal cords, the term ADCy is used, acknowledging that diffusion may be anisotropic but was measured only in the y direction, perpendicular to the cord.
as §2

[5] = normal vs +300 mM sucrose, n=2 fixed samples

In the case of Cc1onc(O)c1CC(N)C(=O)O (stereo not drawn) [AMPA, α-amino-3-hydroxy-5-methyl-4-isoxazolepropionic acid], the “effect on exchange rate” value ([1]; 5 μM and 10 μM AMPA, n=5) is reported as “decreases; also recorded: causes exchange rate to decrease”, the “reversibility of the effect on washout” value ([1]; AMPA washed out) is reported as “recovers upon washout; also recorded: reversible” and the “effect of a second dose on exchange rate” value ([1]; second dose of AMPA) is reported as “less of an effect”.

With C[C@@H]1O[C@@H](O[C@H]2C[C@@H](O)[C@]3(CO)[C@H]4[C@H](O)C[C@]5(C)[C@@H](C6=CC(=O)OC6)CC[C@]5(O)[C@@H]4CC[C@]3(O)C2)[C@H](O)[C@H](O)[C@H]1O [ouabain] the “time until ouabain took effect after treatment” value [2] was “roughly 10 minutes”, the “exchange rate k after ouabain addition” value ([2]; 25° C., n=3, mean (±SD), normal k=140 s^−1) was 36 s⁻¹ and 36 ± 11 s⁻¹ and the “decrease of diffusion weighted spin-lattice relaxation rate R1 DW” value ([2]; n=3) was 8±3%. The “decrease of apparent diffusion coefficient” value ([3]; 100 μM ouabain, n=3) was 9±1%, the “increase of restricted water fraction f” value ([3]; 100 μM ouabain, n=3) was 22±6% and the ADCy ([3]; ouabain-treated spinal cords, mean±SD, n=3, 25° C.) was 0.954±0.045 μm^2/ms. The “exchange rate after completely blocking Na+/K+ pump” value ([1]; 100 μM ouabain) was 50 s⁻¹, the “mean apparent diffusion coefficient” value ([1]; 100 μM ouabain) was “increases” and the restricted volume ([1]; 100 μM ouabain) was “increases”. The “spin lattice relaxation rate” value ([1]; 100 μM ouabain) was “decreases”, the “time until effect after ouabain hits the sample” value ([1]; 100 μM ouabain) was “roughly 10 minutes” and the “timescale from no effect to full effect” value ([1]; 100 μM ouabain) was “roughly 2 minutes”. The “decrease in water exchange rate” value ([1]; 100 μM ouabain, n=3) was 67%, the “increase in relative cell volume” value ([1]; 100 μM ouabain, n=3) was 27% and the “dose dependence of effect on exchange rate” value ([1]; 1-10 μM vs 100 μM ouabain) was “dose-independent effect; also recorded: all-or-none fashion”. The “exchange rate after partially blocking Na+/K+ pump” value ([1]; doses as low as 1 μM ouabain, after a delay) was 50 s⁻¹, the normalized restricted volume ([1]; low (1-10 μM) doses of ouabain) was “not affected” and the “time until effect after hitting the sample” value ([1]; low (1-10 μM) doses of ouabain, n=5) was over 10 min. For the same compound, the “faster peak of exchange time distribution P(τk)” value [4] was “reduced”, the “reduction of Na+/K+-ATPase activity” value (Na+/K+-ATPase; 100 μM ouabain) was 65% and the “further increase of the effect on Na+/K+-ATPase activity” value (Na+/K+-ATPase; doses higher than 100 μM ouabain) was 6%. For the same compound, the “decrease of steady-state transmembrane water exchange rate” value (organotypic CNS) was 50%.

With OC[C@H]1O[C@@](CO)(O[C@H]2O[C@H](CO)[C@@H](O)[C@H](O)[C@H]2O)[C@@H](O)[C@@H]1O [sucrose] the “exchange rate recovered to, in ouabain-treated state” value ([1]; 100 mM sucrose added in ouabain-treated state (5 μM ouabain, FIG. 21), from 50 s^−1) was 150 s⁻¹, the “effect on exchange rate in normal conditions” value ([1]; 100 mM sucrose, normal aCSF) was “small effect” and the “change of ADCy” value (live spinal cords) was “increases ADCy significantly”. The “change of ADCy” value (fixed spinal cords; +300 mM sucrose, fixed samples) was “increases negligibly”, the “change in exchange rate k” value (fixed spinal cords; [5]) was “no change” and the “change in restricted fraction” value (fixed spinal cords; [5]) was “insignificant”.
